US20200377505A1, “BENZIMIDAZOLES AND AZA-BENZIMIDAZOLES, AND METHODS OF USE THEREOF” (Goldfinch Bio., Inc., priority 2017, published 2020)

How the values were obtained:
[1] = target: T1, human TRPC5 (Homo sapiens, UniProt Q9UL62); assay: TRPC5 fluorescence-based assay (Ca2+ flux assay in FLIPR format), cells overexpressing TRPC5; type: cell-based; details: 5 μM of test compound, following Carbachol stimulation
T1 construct: expressed in transfected cells; host or cells: HEK 293
T1 sequence (Q9UL62 1-973): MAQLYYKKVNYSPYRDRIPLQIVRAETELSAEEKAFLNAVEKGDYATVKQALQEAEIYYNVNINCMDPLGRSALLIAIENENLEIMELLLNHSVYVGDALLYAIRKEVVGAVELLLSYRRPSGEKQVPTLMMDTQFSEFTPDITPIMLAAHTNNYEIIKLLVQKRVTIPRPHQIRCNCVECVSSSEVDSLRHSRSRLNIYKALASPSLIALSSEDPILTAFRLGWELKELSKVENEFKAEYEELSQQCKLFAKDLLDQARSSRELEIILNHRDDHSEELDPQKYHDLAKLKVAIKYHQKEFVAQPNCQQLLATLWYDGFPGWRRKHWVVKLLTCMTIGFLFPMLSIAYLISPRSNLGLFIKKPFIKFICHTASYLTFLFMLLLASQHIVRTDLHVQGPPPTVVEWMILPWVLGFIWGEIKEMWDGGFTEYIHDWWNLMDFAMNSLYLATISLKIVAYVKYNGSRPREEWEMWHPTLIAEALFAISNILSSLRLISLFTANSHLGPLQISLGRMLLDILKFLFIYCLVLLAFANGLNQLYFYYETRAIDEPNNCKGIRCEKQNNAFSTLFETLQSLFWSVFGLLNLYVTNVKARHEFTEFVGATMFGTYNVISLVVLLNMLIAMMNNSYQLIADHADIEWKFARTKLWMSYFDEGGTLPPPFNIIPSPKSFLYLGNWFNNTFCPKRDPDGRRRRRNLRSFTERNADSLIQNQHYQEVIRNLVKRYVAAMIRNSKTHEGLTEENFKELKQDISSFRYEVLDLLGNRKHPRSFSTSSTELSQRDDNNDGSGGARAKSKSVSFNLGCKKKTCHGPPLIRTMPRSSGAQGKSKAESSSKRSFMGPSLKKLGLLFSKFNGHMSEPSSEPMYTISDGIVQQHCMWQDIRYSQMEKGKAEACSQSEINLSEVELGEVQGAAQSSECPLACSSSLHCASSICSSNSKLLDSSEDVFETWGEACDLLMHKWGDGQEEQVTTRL

[2] = target: T2, human TRPC6 (Homo sapiens, UniProt Q9Y210); assay: TRPC6 fluorescence-based assay (Ca2+ flux assay in FLIPR format), cells overexpressing TRPC6; type: cell-based; details: 5 μM of test compound, following Carbachol stimulation
T2 construct: expressed in transfected cells; host or cells: HEK 293
T2 sequence (Q9Y210 1-931): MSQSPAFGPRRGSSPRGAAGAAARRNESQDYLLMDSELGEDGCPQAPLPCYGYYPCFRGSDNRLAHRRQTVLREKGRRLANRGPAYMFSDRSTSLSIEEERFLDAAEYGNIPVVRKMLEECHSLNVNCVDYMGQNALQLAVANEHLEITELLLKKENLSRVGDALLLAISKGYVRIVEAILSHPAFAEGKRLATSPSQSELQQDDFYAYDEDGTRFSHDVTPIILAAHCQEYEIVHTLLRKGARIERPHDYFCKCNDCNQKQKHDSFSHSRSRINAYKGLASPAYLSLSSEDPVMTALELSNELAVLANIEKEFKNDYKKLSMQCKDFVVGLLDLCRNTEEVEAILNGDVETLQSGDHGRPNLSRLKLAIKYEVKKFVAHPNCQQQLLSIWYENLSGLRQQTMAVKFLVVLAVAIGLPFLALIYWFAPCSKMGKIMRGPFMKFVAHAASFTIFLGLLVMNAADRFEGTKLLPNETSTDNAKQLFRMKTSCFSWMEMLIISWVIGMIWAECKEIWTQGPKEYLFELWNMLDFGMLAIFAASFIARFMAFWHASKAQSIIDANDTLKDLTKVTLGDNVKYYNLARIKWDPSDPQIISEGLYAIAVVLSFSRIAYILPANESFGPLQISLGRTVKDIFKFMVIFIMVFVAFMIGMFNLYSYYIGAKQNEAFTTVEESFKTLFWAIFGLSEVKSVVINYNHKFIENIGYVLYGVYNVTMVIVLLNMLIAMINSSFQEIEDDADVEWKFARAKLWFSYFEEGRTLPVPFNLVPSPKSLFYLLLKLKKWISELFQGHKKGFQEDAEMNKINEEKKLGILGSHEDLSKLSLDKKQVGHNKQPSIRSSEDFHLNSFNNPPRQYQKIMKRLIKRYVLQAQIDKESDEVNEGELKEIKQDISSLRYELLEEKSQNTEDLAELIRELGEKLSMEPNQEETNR

| Structure (SMILES) | inhibition at 5 µM [1] [%] | inhibition at 5 µM [2] [%] |
| --- | --- | --- |
| COc1ccc(Cc2nc3ccccc3n2C(C)c2ccccc2)cc1 (centres unmarked) | 51 | 45 |
| CCn1c(NC2CCCCC2)nc2ccccc21 | 55.5 | 9.58 |
| CCCCn1c(NCc2ccc(N(CC)CC)cc2)nc2ccccc21 | 28.7 | 30.3 |
| CCn1c(NCc2ccc(Br)cc2)nc2ccccc21 | 71.6 | 77.3 |
| CCCCCn1c(NCc2ccc(N(C)C)cc2)nc2ccccc21 | 62.7 | 81.9 |
| Cc1nc2ccccc2n1CCNC(=O)c1ccccc1SCc1ccsc1 | 77.7 | 80.8 |
| COc1ccc(CNc2nc3ccccc3n2C)c(OC)c1 | 41.3 | 19.4 |
| Cc1cc(NC(=O)Cn2c(NCc3ccccc3)nc3ccccc32)no1 | 48 | 22.8 |
| Cn1c(=O)c2c(ncn2CC(=O)OCCCC(c2ccc(F)cc2)c2ccc(F)cc2)n(C)c1=O | 60 | 60.7 |
| COc1ccc(OCc2nc3ccccc3n2CCc2ccccc2)cc1 | 38.3 | 52 |
| Cc1ccc(Cn2c(CN3CCC(CN)C3)nc3ccccc32)cc1 (centres unmarked) | 51.8 | 51 |

Results, then the molecule that gave them:

| inhibition at 5 µM [1] [%] | inhibition at 5 µM [2] [%] | Structure (SMILES) |
| --- | --- | --- |
| 61.3 | 83.5 | COCc1ccccc1Cn1cnc2ccccc21 |
| 57.9 | 53.9 | COc1ccccc1CNc1nc2ccccc2n1C(C)C |
| 38.6 | 27.3 | Nc1ccc(-c2nc3ccccc3n2CCCOc2ccccc2)cc1 |
| 46 | 29.8 | CCCn1c(NCc2ccccc2Cl)nc2ccccc21 |
| 35.5 | 45.3 | Cc1ccccc1Cn1c(C2CC2)nc2ccccc21 |
| 48.4 | 22.4 | CC(C)n1c(NCc2ccccc2)nc2ccccc21 |
| 32.2 | 50 | CCSc1nc2ccccc2n1Cc1cccc([N+](=O)[O-])c1 |
| 48.4 | 34.8 | Nc1nc2ccccc2n1Cc1ccccc1F |
